Measured values taken from US4283394A, “Cytotoxic nucleoside-corticosteroid phosphodiesters” (priority 1979, dated 1981).
Read-outs that look alike come from different tables or passages of the source.

Legend:
[1] = tested on: mouse leukemia L-1210 cells; test: Antiproliferative activity in vitro, viability of L-1210 cells in culture; assay type: cell-based; details: for IC50: read-out: Concentration (μM) for 50 percent loss of viability at 72 hours (ED50)
Method: The antiproliferative activity of the conjugates, ara-C, ara-CMP and the steroids was determined by measuring their effects against mouse leukemia L-1210 cells in culture. The assay was performed in test tubes without agitation according to the procedure described by Hong et al. in J. Med. Chem. 16: 139 (1973). After 24, 48 and 72 h, viable cell counts were performed on the cultures which had been incubated with compounds in various concentrations and the concentration of each compound required to produce a 50 percent inhibition of growth (ED50) after 72 h was determined by interpolation using the method described by Tritsch et al. in Cancer Biochem. Biophys. 2: 87 (1977).

[2] = tested on: i.p. implanted L-1210 leukemia; test: Antitumor activity against i.p. implanted L-1210 leukemia in mice; assay type: in vivo; details: for response vs control in vivo at 50 mg/kg / response vs control in vivo at 100 mg/kg / response vs control in vivo at 25 mg/kg: Mus musculus, L1210, ip; for response vs control in vivo at 50 mg/kg: read-out: Percent T/C (mean survival days treated/control × 100), 50 mg/kg/day × 5 i.p.; for response vs control in vivo at 100 mg/kg: read-out: Percent T/C (mean survival days treated/control × 100), 100 mg/kg/day × 5 i.p.
Method: The ascites cell form of L-1210 leukemia, grown in C3 D2 F1 /J female mice (supplied by Jackson Labs) were employed. The assay was performed according to National Cancer Institute (NCI) protocol 1.100 described by R. I. Gerau et al., Cancer Chemother. Rep. (Part 3) 3: (2): 7, 47 (1972) with a slight modification. Intraperitoneal implantation of 1×10^6 cells in 0.5-ml suspension to the control and the treated groups (each group comprised 8 C3 D2 F1 /J female mice, average wt 20 g) was carried out using donor mice (DBA/2Ha, supplied by Roswell Park Memorial Institute) bearing 3 day tumor growths. Compounds were dissolved in 0.9 percent NaCl and a 0.5 ml dose was administered intraperitoneally once daily. Treatment began 24 h after implantation and continued for 5 consecutive days. Control animals received a 0.5 ml injection of saline. Testing was followed as described in the NCI protocol and evaluated by recording the survival time according to the formula appearing in protocol 11.

[3] = tested on: i.p. implanted L1210 leukemia; test: Comparison of conjugates and ara-C plus steroid combinations, i.p. implanted L1210 leukemic mice; assay type: in vivo
Method: Each mouse received 1×10^6 cells intraperitoneally. Doses were administered i.p. once daily to groups of 8 mice (avg. wt. 20 g) for 5 consecutive days beginning 24 hours after tumor implantation. In case of the combination, ara-C and the steroid were given at the same molar concentrations present in the conjugates. Mean survival days were calculated by the equation appearing in the NCI protocol; T/C ratios are reported in percent, i.e (treated/control)×100.

[4] = tested on: intracerebrally implanted L-1210; test: Antitumor activity against intracerebrally (i.c.) implanted L-1210 in mice; assay type: in vivo; details: for Survivors on day 35: groups of 8 mice; for Percent T/C: values as of 35th day
Method: Effects of the conjugate on i.c. implanted L-1210 in mice were also studied. A mouse (C3 D2 F1 /J, female, avg. wt. 20 g) was anesthesized with diethyl ether, the right parietal scalp was washed with 70 percent ethanol, a 27 G 1/2 needle with a guard placed on the outside of the barrel 1.5 mm from the top of the bevel, was inserted through the skull and 1×10^5 cells in 0.05 ml suspension were inoculated into the mouse. The conjugate in 0.9 percent NaCl (0.5 ml) was administered intraperitoneally once daily. Treatment began 24 h after implantation and continued for 5 consecutive days. Control animals received a 0.5 ml injection of saline. Testing was followed as described in the NCI protocol and evaluated by recording the survival time according to the formula appearing in protocol 11.

[5] = read-out: Percent T/C (mean survival days treated/control × 100), 25 mg/kg/day × 5 i.p.

Structure (SMILES): Nc1ccn([C@@H]2O[C@H](COP(=O)(O)O)[C@@H](O)[C@@H]2O)c(=O)n1 [Ara-CMP, reference compound]
- IC50 ([1]; Mus musculus, L1210, 72 h): 0.05 µM
- Mean Survival Days, Treated ([2]; 50 mg/kg/day × 5 i.p.): 9.13 days
- Mean Survival Days, Treated ([2]; 100 mg/kg/day × 5 i.p.): 11.00 days
- response vs control in vivo at 50 mg/kg [2]: 104%
- response vs control in vivo at 100 mg/kg [2]: 122%

Structure (SMILES): C[C@]12CC[C@H]3[C@@H](CCC4=CC(=O)CC[C@@]43C)[C@@H]1CC[C@@H]2C(=O)COP(=O)(O)OC[C@H]1O[C@@H](n2ccc(N)nc2=O)[C@@H](O)[C@@H]1O [DOC-p-ara-C]
- Survival Days Mean (Treated) ([3]; 78.7 μmole/kg/day × 5): 21.38 days
- Weight change on Day 8 (g/mouse) ([3]; 78.7 μmole/kg/day × 5): -0.94 g/mouse
- response vs control in vivo at 78.7 µmol/kg ([3]; Mus musculus, L1210, ip, 78.7 μmole/kg/day × 5, read-out: % T/C): 238%

Structure (SMILES): C[C@]12C[C@H](O)[C@H]3[C@@H](CCC4=CC(=O)CC[C@@]43C)[C@@H]1CC[C@@H]2C(=O)COP(=O)(O)OC[C@H]1O[C@@H](n2ccc(N)nc2=O)[C@@H](O)[C@@H]1O [Corticosterone-p-ara-C]
- Survival Days Mean (Treated) ([3]; 77.0 μmole/kg/day × 5): 26.50 days
- Weight change on Day 8 (g/mouse) ([3]; 77.0 μmole/kg/day × 5): -0.71 g/mouse
- response vs control in vivo at 77 µmol/kg ([3]; Mus musculus, L1210, ip, 77.0 μmole/kg/day × 5, read-out: % T/C): 342%

Structure (SMILES): C[C@]12C=CC(=O)C=C1CC[C@@H]1[C@@H]2C(=O)C[C@@]2(C)[C@H]1CC[C@]2(O)C(=O)CO [prednisone, 17α,21-dihydroxy-1,4-pregnadiene-3,11,20-trione, reference compound]
- response vs control in vivo at 25 mg/kg ([2]; 25 mg/kg/day × 5 i.p., read-out: Percent T/C (mean survival days treated/control × 100)): 133%

Structure (SMILES): CC12CCC(=O)C=C1CCC1C3CCC(O)(C(=O)COP(=O)(O)OCC4OC(n5ccc(N)nc5=O)C(O)C4O)C3(C)CC(O)C12F (centres unmarked) [Fludrocortisone-p-ara-C]
- Survival Days Mean (Treated) ([3]; 36.46 μmole/kg/day × 5): 14.30 days
- Weight change on Day 8 (g/mouse) ([3]; 36.46 μmole/kg/day × 5): -1.09 g/mouse
- response vs control in vivo at 36.46 µmol/kg ([3]; Mus musculus, L1210, ip, 36.46 μmole/kg/day × 5, read-out: % T/C): 159%

Structure (SMILES): C[C@]12C=CC(=O)C=C1CC[C@@H]1[C@@H]2[C@@H](O)C[C@@]2(C)[C@H]1CC[C@]2(O)C(=O)CO [Prednisolone, 11β,17α,21-trihydroxy-1,4-pregnadiene-3,20-dione, reference compound]
- response vs control in vivo at 25 mg/kg [2, 5]: 133%

Structure (SMILES): C[C@H]1C[C@@H]2[C@H]([C@@H](O)C[C@@]3(C)[C@H]2CC[C@]3(O)C(=O)COP(=O)(O)OC[C@H]2O[C@H](n3ccc(N)nc3=O)[C@@H](O)[C@@H]2O)[C@@]2(C)C=CC(=O)C=C12 [MePred-p-ara-C (IV), 5'-(6α-Methylprednisolone-21-phosphoryl)-1-α-D-arabinofuranosylcytosine]
- antiproliferative activity compared with ara-CMP and ara-C ([1]; 72 h): activity comparable to ara-CMP
- IC50 ([1]; 72 h): 0.05 µM
- % T/C ([3]; 74.0 μmole/kg/day × 5): 246.8%
- Survival Days Mean (Treated) ([3]; 74.0 μmole/kg/day × 5): 19.13 days
- Survival Days Range ([3]; 74.0 μmole/kg/day × 5): 14 to 24 days
- Weight change on Day 8 (g/mouse) ([3]; 74.0 μmole/kg/day × 5): -1.08 g/mouse

Structure (SMILES): C[C@@H]1C[C@H]2[C@@H]3CCC4=CC(=O)C=C[C@]4(C)[C@@]3(F)[C@@H](O)C[C@]2(C)[C@@]1(O)C(=O)COP(=O)(O)OC[C@H]1O[C@@H](n2ccc(N)nc2=O)[C@@H](O)[C@@H]1O [DXM-p-ara-C (III), 5'-(Dexamethasone-21-phosphoryl)-1-β-D-arabinofuranosylcytosine]
- antiproliferative activity compared with ara-CMP and ara-C ([1]; 72 h): activity comparable to ara-CMP
- IC50 ([1]; Mus musculus, L1210, 72 h): 0.08 µM
- toxicity ([2]; 50 mg (71.7 μmol)/kg/day): showed some toxicity
- Mean Survival Days, Treated ([2]; 50 mg/kg/day × 5 i.p.): 13.50 days
- Percent T/C (mean survival days treated/control × 100) ([2]; 50 mg/kg/day × 5 i.p.): 150%
- response vs control in vivo at 50 mg/kg [2]: 150%
- Survival Days Mean (Treated) ([3]; 36.0 μmole/kg/day × 5): 11.50 days
- Weight change on Day 8 (g/mouse) ([3]; 36.0 μmole/kg/day × 5): -1.03 g/mouse
- Survival Days Mean (Treated) ([3]; 71.7 μmole/kg/day × 5): 13.50 days
- Weight change on Day 8 (g/mouse) ([3]; 71.7 μmole/kg/day × 5): -1.50 g/mouse
- response vs control in vivo at 36 µmol/kg ([3]; Mus musculus, L1210, ip, 36.0 μmole/kg/day × 5, read-out: % T/C): 128%
- response vs control in vivo at 71.7 µmol/kg ([3]; Mus musculus, L1210, ip, 71.7 μmole/kg/day × 5, read-out: % T/C): 150%

Structure (SMILES): C[C@]12CCC(=O)C=C1CC[C@@H]1[C@@H]2C(=O)C[C@@]2(C)[C@H]1CC[C@]2(O)C(=O)COP(=O)(O)OC[C@H]1O[C@@H](n2ccc(N)nc2=O)[C@@H](O)[C@@H]1O [Cortisone-p-ara-C (VI), 5'-(Cortisone-21-phosphoryl)-1-β-D-arabinofuranosylcytosine]
- antiproliferative activity compared with ara-CMP and ara-C ([1]; 72 h): activity comparable to ara-CMP
- IC50 ([1]; Mus musculus, L1210, 72 h): 0.07 µM
- Mean Survival Days, Treated ([2]; 50 mg/kg/day × 5 i.p.): 20.14 days
- response vs control in vivo at 50 mg/kg [2]: 224%
- Survival Days Mean (Treated) ([3]; 75.1 μmole/kg/day × 5): 21.43 days
- Weight change on Day 8 (g/mouse) ([3]; 75.1 μmole/kg/day × 5): -0.07 g/mouse
- response vs control in vivo at 75.1 µmol/kg ([3]; Mus musculus, L1210, ip, 75.1 μmole/kg/day × 5, read-out: % T/C): 238%

Structure (SMILES): Nc1ccn([C@@H]2O[C@H](CO)[C@@H](O)[C@@H]2O)c(=O)n1 [Ara-C, 1-β-D-Arabinofuranosylcytosine, reference compound]
- IC50 ([1]; Mus musculus, L1210, 72 h): 0.1 µM
- Mean Survival Days, Treated ([2]; 25 mg/kg/day × 5 i.p.): 11.00 days
- Mean Survival Days, Treated ([2]; 50 mg/kg/day × 5 i.p.): 9.63 days
- Percent T/C (mean survival days treated/control × 100) ([2]; 50 mg/kg/day × 5 i.p.): 110%
- response vs control in vivo at 25 mg/kg [2, 5]: 128%
- response vs control in vivo at 50 mg/kg [2]: 110%
- Mean Survival Days ([4]; 25 mg (102.8 μmol)/kg/day × 5 i.p.): 13.75 days
- Survivors on day 35 ([4]; 25 mg/kg/day × 5 i.p.): 0
- Percent T/C ([4]; 25 mg/kg/day × 5 i.p.): 152.8%
- Percent T/C ([4]; 25 mg/kg/day × 5 i.p., listed as ara-C): 153%
- weight lost by day 14 ([4]; ara-C treated mice): about 5 g
- deaths of treated mice ([4]; ara-C treated mice, by day 14): all but one of them died

Structure (SMILES): C[C@]12CCC(=O)C=C1CC[C@@H]1[C@@H]2[C@@H](O)C[C@@]2(C)[C@H]1CC[C@]2(O)C(=O)COP(=O)(O)OC[C@H]1O[C@@H](n2ccc(N)nc2=O)[C@@H](O)[C@@H]1O [Cortisol-p-ara-C (V), 5'-(Cortisol-21-phosphoryl)-1-β-D-arabinofuranosylcytosine]
- antiproliferative activity compared with ara-CMP and ara-C ([1]; 72 h): less active than both ara-CMP and ara-C
- IC50 ([1]; Mus musculus, L1210, 72 h): 0.25 µM
- Mean Survival Days, Treated ([2]; 50 mg/kg/day × 5 i.p.): 24.75 days
- Mean Survival Days, Treated ([2]; 100 mg/kg/day × 5 i.p.): 14.25 days
- response vs control in vivo at 50 mg/kg [2]: 287%
- response vs control in vivo at 100 mg/kg [2]: 154%
- Survival Days Mean (Treated) ([3]; 75.0 μmole/kg/day × 5): 24.75 days
- Weight change on Day 8 (g/mouse) ([3]; 75.0 μmole/kg/day × 5 (each, for combinations)): +0.09 g/mouse
- response vs control in vivo at 75 µmol/kg ([3]; Mus musculus, L1210, ip, 75.0 μmole/kg/day × 5, read-out: % T/C): 287%
- Mean Survival Days ([4]; 50 mg/kg/day × 5 i.p.): 20.50 days
- body weight lost by day 11 ([4]; 50 mg/kg/day × 5 i.p.): about 4 g
- weight gained over original weight (20 g) by day 20 ([4]; 50 mg/kg/day × 5 i.p.): about 1 g
- Survivors on day 35 ([4]; 50 mg/kg/day × 5 i.p.): 2
- Percent T/C ([4]; 50 mg/kg/day × 5 i.p.): 227.8%
- Percent T/C ([4]; 50 mg/kg/day × 5 i.p., listed as V): 228%
